Test results reported in the supplement of paper PMC10307832.

Columns and labels:
Assay in all cases: relative viability (nuclei count vs DMSO), 5 days (fraction); higher = more cells survive
[1] = compound: CN1CCN(CC1)C2=CC(=C(C=C2)NC3=NC=C4C(=N3)N(C5=CC=CC=C5C(=O)N4C)C)OC [XMD8-85] + CC(=O)c1c(C)c2cnc(Nc3ccc(N4CCNCC4)cn3)nc2n(C2CCCC2)c1=O [Palbociclib] (partner 0.5 µM)
Procedure, shortened: (§1)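 Values are medians from duplicate plates. Each reflects relative viability, defined as the nuclei count of treated wells over that of vehicle wells. Lung cancer cell lines in 1536-well plates were pin-tool dosed one day after seeding with one drug alone or with a fixed anchor-drug dose plus five library-drug doses (not always all listed) in √10 steps, then fixed, stained and imaged at 4× after 5 days.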

[2] = compound: CN1CCN(CC1)C2=CC(=C(C=C2)NC3=NC=C4C(=N3)N(C5=CC=CC=C5C(=O)N4C)C)OC [XMD8-85] + CCNC(=O)c1noc(-c2cc(C(C)C)c(O)cc2O)c1-c1ccc(CN2CCOCC2)cc1 [Luminespib] (partner 0.01 µM)
Procedure, shortened: as §1

[3] = compound: CN1CCN(CC1)C2=CC(=C(C=C2)NC3=NC=C4C(=N3)N(C5=CC=CC=C5C(=O)N4C)C)OC [XMD8-85] + NC(=O)Nc1cc(-c2cccc(F)c2)sc1C(=O)N[C@H]1CCCNC1 [AZD7762] (partner 0.2 µM)
Procedure, shortened: as §1

[4] = compound: O=C(O)C(Cc1ccccc1[N+](=O)[O-])=NNc1nc(-c2ccc(Cl)c(Cl)c2)cs1 (mixture of isomers) [4EGI-1] + CC(=O)c1c(C)c2cnc(Nc3ccc(N4CCNCC4)cn3)nc2n(C2CCCC2)c1=O [Palbociclib] (partner 0.5 µM)
Procedure, shortened: as §1

Cell Line | relative viability ([1]; first compound 0.08 µM) | relative viability ([1]; first compound 0.253 µM) | relative viability ([1]; first compound 0.8 µM) | relative viability ([1]; first compound 2.53 µM) | relative viability ([1]; first compound 8 µM) | relative viability ([2]; first compound 0.08 µM) | relative viability ([2]; first compound 0.253 µM) | relative viability ([2]; first compound 0.8 µM) | relative viability ([2]; first compound 2.53 µM) | relative viability ([2]; first compound 8 µM) | relative viability ([3]; first compound 0.08 µM) | relative viability ([3]; first compound 0.253 µM) | relative viability ([3]; first compound 0.8 µM) | relative viability ([3]; first compound 2.53 µM) | relative viability ([3]; first compound 8 µM) | relative viability ([4]; first compound 0.5 µM) | relative viability ([4]; first compound 1.581 µM) | relative viability ([4]; first compound 5 µM) | relative viability ([4]; first compound 15.81 µM) | relative viability ([4]; first compound 50 µM)
NCI-H2342 | 0.445 | 0.561 | 0.503 | 0.544 | 0.533 | 0.649 | 0.719 | 0.74 | 0.809 | 0.887 | 0.509 | 0.478 | 0.552 | 0.511 | 0.488 | 0.506 | 0.547 | 0.582 | 0.59 | 0.539
HCC-44 | 0.993 | 1.06 | 1.08 | 0.993 | 0.946 | 1.32 | 1.21 | 1.36 | 0.588 | 0.75 | 1.05 | 1.06 | 1 | 1.01 | 1.06 | 1 | 0.813 | 0.907 | 0.862 | 0.681
BEN | 0.466 | 0.449 | 0.475 | 0.446 | 0.463 | 0.248 | 0.333 | 0.851 | 0.357 | 0.317 | 0.831 | 0.661 | 0.691 | 0.653 | 0.463 | 0.452 | 0.455 | 0.498 | 0.46 | 0.458
HARA | 0.278 | 0.287 | 0.279 | 0.247 | 0.195 | 0.927 | 0.726 | 0.749 | 0.528 | 0.387 | 0.314 | 0.269 | 0.303 | 0.283 | 0.273 | 0.32 | 0.243 | 0.295 | 0.222 | 0.202
NCI-H2085 | 0.446 | 0.452 | 0.419 | 0.475 | 0.397 | 0.412 | 0.513 | 0.403 | 0.348 | 0.302 | 0.851 | 0.936 | 0.948 | 0.993 | 0.881 | 0.518 | 0.462 | 0.453 | 0.474 | 0.339
NCI-H838 | 0.224 | 0.197 | 0.227 | 0.251 | 0.184 | 0.234 | 0.225 | 0.29 | 0.389 | 0.189 | 0.972 | 0.987 | 0.915 | 0.856 | 0.868 | 0.237 | 0.223 | 0.228 | 0.2 | 0.119
NCI-H647 | 0.342 | 0.325 | 0.406 | 0.523 | 0.282 | 0.151 | 0.208 | 0.169 | 0.126 | 0.132 | 0.306 | 0.371 | 0.586 | 0.503 | 0.198 | 0.53 | 0.302 | 0.455 | 0.303 | 0.0557
NCI-H1651 | 0.517 | 0.534 | 0.475 | 0.468 | 0.405 | 0.785 | 1.08 | 0.774 | 0.667 | 0.46 | 0.46 | 0.431 | 0.47 | – | 0.433 | 0.559 | 0.478 | 0.493 | 0.534 | 0.509
